Laboratory results: patent publication US20120030841A1, “Isoxazoline compounds for combating invertebrate pests” (BASF SE, priority 2009, published 2012)

Columns and labels:
Type in all cases: in vivo
[1] = tested on: boll weevil (Anthonomus grandis); test: Boll weevil egg/larval test on insect diet, 24-well plates; conditions: 120 h, sprayed onto insect diet, egg and larval mortality, 5 days, read-out: mortality in comparison with untreated controls
Protocol: (§1) The test solution was prepared the day it was used and in general at concentrations of […] (wt/vol).
For evaluating control of boll weevil (Anthonomus grandis) the test unit consisted of 24-well-microtiter plates containing an insect diet and 20-30 A. grandis eggs.
The compounds were formulated using a solution containing 75% v/v water and 25% v/v DMSO. Different concentrations of formulated compounds were sprayed onto the insect diet at 20 μl, using a custom built micro atomizer, at two replications.
After application, microtiter plates were incubated at about 23±1° C. and about 50±5% relative humidity for 5 days. Egg and larval mortality was then visually assessed.

[2] = tested on: Mediterranean fruitfly (Ceratitis capitata); test: Mediterranean fruitfly egg/larval test on insect diet, microtiter plates; conditions: 120 h, sprayed onto insect diet, egg and larval mortality, 5 days, read-out: mortality in comparison with untreated controls
Protocol: as §1
For evaluating control of Mediterranean fruitfly (Ceratitis capitata) the test unit consisted of microtiter plates containing an insect diet and 50-80 C. capitata eggs.
The compounds were formulated using a solution containing 75% v/v water and 25% v/v DMSO. Different concentrations of formulated compounds were sprayed onto the insect diet at 5 μl, using a custom built micro atomizer, at two replications. After application, microtiter plates were incubated at about 28±1° C. and about 80±5% relative humidity for 5 days. Egg and larval mortality was then visually assessed.

[3] = tested on: tobacco budworm (Heliothis virescens); test: Tobacco budworm egg/larval test on insect diet, 96-well plates; conditions: 120 h, sprayed onto insect diet, egg and larval mortality, 5 days, read-out: mortality in comparison with untreated controls
Protocol: as §1
For evaluating control of tobacco budworm (Heliothis virescens) the test unit consisted of 96-well-microtiter plates containing an insect diet and 15-25 H. virescens eggs. The compounds were formulated using a solution containing 75% v/v water and 25% v/v DMSO. Different concentrations of formulated compounds were sprayed onto the insect diet at 10 μl, using a custom built micro atomizer, at two replications. After application, microtiter plates were incubated at about 28±1° C. and about 80±5% relative humidity for 5 days. Egg and larval mortality was then visually assessed.

[4] = tested on: southern armyworm (Spodoptera eridania); test: Southern armyworm foliar spray test on lima bean plants; conditions: 96 h, armyworm larvae, 4 days after treatment, read-out: mortality in comparison with untreated controls
Protocol: as §1
The active compounds were formulated in cyclohexanone as a 10,000 ppm solution supplied in tubes. The tubes were inserted into an automated electrostatic sprayer equipped with an atomizing nozzle and they served as stock solutions for which lower dilutions were made in 50% acetone:50% water (v/v). A nonionic surfactant (Kinetic®) was included in the solution at a volume of 0.01% (v/v).
Lima bean plants (variety Sieva) were grown 2 plants to a pot and selected for treatment at the 1St true leaf stage. Test solutions were sprayed onto the foliage by an automated electrostatic plant sprayer equipped with an atomizing spray nozzle. The plants were dried in the sprayer fume hood and then removed from the sprayer. Each pot was placed into perforated plastic bags with a zip closure. About 10 to 11 armyworm larvae were placed into the bag and the bags zipped closed. Test plants were maintained in a growth room at about 25° C. and about 20-40% relative humidity for 4 days, avoiding direct exposure to fluorescent light (24 hour photoperiod) to prevent trapping of heat inside the bags. Mortality and reduced feeding were assessed 4 days after treatment, compared to untreated control plants.

[5] = tested on: green peach aphid (Myzus persicae); test: Green peach aphid systemic test, artificial diet under membrane, 96-well plates; conditions: 72 h, adult aphids on treated artificial diet, 3 days, read-out: mortality in comparison with untreated controls
Protocol: as §1
For evaluating control of green peach aphid (Myzus persicae) through systemic means the test unit consisted of 96-well-microtiter plates containing liquid artificial diet under an artificial membrane.
The compounds were formulated using a solution containing 75% v/v water and 25% v/v DMSO. Different concentrations of formulated compounds were pipetted into the aphid diet, using a custom built pipetter, at two replications.
After application, 5-8 adult aphids were placed on the artificial membrane inside the microtiter plate wells. The aphids were then allowed to suck on the treated aphid diet and incubated at about 23±1° C. and about 50±5% relative humidity for 3 days. Aphid mortality and fecundity was then visually assessed.

COC(=O)c1cccc2c(C3=NOC(c4cc(Cl)cc(Cl)c4)(C(F)(F)F)C3)ccnc12 (centres unmarked) [Compound 1-3, 4-[5-(3,5-dichloro-phenyl)-5-trifluoromethyl-4,5-di-hydroisoxazol-3-yl]-quinoline-8-carboxylic acid methyl ester]
> 75%: mortality at 2500 ppm [1] | mortality at 2500 ppm [2]

N#Cc1cccc2c(C3=NOC(c4cc(Cl)cc(Cl)c4)(C(F)(F)F)C3)ccnc12 (centres unmarked) [Compound 1-2, 4-[5-(3,5-dichloro-phenyl)-5-trifluoromethyl-4,5-di-hydroisoxazol-3-yl]-quinoline-8-carbonitrile]
> 75%: mortality at 2500 ppm [1] | mortality at 2500 ppm [2] | mortality at 2500 ppm [3] | mortality at 300 ppm [4]

FC(F)(F)C1(c2cc(Cl)cc(Cl)c2)CC(c2ccnc3c(Br)cccc23)=NO1 (centres unmarked) [Compound 1-1, 8-bromo-4-[5-(3,5-dichloro-phenyl)-5-trifluoromethyl-4,5-di-hydroisoxazol-3-yl]-quinoline]
> 75%: mortality at 2500 ppm [1] | mortality at 2500 ppm [2] | mortality at 2500 ppm [5] | mortality at 2500 ppm [3] | mortality at 300 ppm [4]
